In patent US20240246932A1 (Merck Sharp & Dohme LLC, priority 2021, published 2024):

Target: human NaV 1.8 channels stably expressed in HEK 293 cells (Homo sapiens (Human), UniProt Q9Y5Y9)
Assay: Nav1.8 Qube automated patch-clamp assay
Format: cell-based
Conditions: human NaV1.8 in HEK 293 cells, whole-cell voltage clamp, room temperature; read-out: IC50 values (nM) for Examples in the Nav1.8 Qube Assay
Outline: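 Whole-cell voltage clamp at room temperature on HEK293 cells; from −90 mV, a 10 s 1 Hz train of 20 ms pulses to 10 mV (repolarising to −67 mV) was applied. Peak currents at pulses 1 and 10 gave resting- and inactivated-state inhibition; IC50 fitted by Hill equation. Internal CsF/CsCl buffer.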

Sequence of human NaV 1.8 channels stably expressed in HEK 293 cells (Q9Y5Y9 whole entry): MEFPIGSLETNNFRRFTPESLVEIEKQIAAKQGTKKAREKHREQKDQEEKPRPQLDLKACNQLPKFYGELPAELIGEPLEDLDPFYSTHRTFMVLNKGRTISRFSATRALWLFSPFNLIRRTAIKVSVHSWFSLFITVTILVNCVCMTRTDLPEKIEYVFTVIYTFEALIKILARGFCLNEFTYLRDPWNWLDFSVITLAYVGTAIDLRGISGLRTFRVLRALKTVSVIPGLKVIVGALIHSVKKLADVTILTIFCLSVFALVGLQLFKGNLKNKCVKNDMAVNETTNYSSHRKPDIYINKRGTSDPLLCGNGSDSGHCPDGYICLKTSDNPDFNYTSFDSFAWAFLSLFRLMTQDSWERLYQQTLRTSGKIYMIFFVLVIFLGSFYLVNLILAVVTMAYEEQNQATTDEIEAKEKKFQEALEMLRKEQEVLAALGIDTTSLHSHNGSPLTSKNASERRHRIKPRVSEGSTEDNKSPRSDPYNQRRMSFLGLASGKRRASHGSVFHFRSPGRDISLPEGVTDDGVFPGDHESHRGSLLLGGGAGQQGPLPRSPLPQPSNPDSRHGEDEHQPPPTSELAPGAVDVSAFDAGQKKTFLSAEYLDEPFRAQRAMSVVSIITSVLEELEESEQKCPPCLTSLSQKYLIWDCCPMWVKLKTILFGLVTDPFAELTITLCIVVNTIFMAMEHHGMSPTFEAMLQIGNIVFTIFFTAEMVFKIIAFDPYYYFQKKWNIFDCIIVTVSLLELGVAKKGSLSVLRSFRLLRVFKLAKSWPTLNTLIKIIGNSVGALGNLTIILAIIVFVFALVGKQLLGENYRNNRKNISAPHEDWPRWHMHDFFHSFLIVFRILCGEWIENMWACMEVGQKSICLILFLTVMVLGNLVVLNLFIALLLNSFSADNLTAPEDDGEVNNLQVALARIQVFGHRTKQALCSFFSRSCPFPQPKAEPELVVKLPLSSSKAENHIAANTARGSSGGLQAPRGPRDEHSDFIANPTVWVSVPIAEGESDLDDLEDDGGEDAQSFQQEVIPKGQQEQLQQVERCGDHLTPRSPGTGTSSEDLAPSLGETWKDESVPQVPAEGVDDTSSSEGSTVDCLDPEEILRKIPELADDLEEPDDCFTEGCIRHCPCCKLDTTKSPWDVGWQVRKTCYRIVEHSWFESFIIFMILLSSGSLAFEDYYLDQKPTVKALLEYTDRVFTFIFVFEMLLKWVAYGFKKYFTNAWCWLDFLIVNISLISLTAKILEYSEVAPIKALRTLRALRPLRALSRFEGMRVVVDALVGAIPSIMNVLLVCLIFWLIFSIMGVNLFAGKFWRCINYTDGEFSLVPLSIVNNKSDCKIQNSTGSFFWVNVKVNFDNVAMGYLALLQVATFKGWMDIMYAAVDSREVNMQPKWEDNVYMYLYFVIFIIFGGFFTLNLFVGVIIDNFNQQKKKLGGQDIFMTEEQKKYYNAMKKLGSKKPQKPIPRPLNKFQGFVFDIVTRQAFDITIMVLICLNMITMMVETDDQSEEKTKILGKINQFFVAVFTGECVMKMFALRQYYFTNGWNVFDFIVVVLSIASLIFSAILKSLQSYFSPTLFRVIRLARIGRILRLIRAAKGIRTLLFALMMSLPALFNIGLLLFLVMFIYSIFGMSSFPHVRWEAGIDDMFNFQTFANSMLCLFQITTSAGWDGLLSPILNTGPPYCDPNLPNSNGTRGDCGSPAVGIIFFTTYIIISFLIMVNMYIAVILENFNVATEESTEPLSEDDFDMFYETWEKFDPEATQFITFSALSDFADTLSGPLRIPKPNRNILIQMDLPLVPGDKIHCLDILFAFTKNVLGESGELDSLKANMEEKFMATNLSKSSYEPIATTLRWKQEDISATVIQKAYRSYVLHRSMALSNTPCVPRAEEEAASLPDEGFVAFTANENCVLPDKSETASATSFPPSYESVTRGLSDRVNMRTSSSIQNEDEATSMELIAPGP

C[C@@H]1C(=O)NCCN1C(=O)NC(c1ccc(C2CC2)nc1)c1ccc(F)c(Cl)c1F (single isomer, unassigned) [Example 33A, (2R)-N-((R or S)-(3-chloro-2,4-difluoro-phenyl)(6-cyclo-propylpyridin-3-yl)methyl)-2-methyl-3-oxopiperazine-1-carboxamide]
IC50: 14.4 nM

C[C@@H]1C(=O)NCCN1C(=O)NC(c1cnc(OC(F)F)nc1)c1ccc(F)c(Cl)c1F (single isomer, unassigned) [Example 74B, (2R)-N-((S or R)-(3-chloro-2,4-difluorophenyl)(2-(difluoromethoxy)pyrimidin-5-yl)methyl)-2-methyl-3-oxopiperazine-1-carboxamide]
IC50: 1320 nM

C[C@@H]1C(=O)NCCN1C(=O)NC(c1ccc(OCC(F)(F)F)cc1)c1ccc(F)c(C(F)(F)F)n1 (single isomer, unassigned) [Example 57A, (2R)-N-((R or S)-(5-fluoro-6-(trifluoro-methyl)pyridin-2-yl)(4-(2,2,2-trifluoro-ethoxy)phenyl)methyl)-2-methyl-3-oxopiperazine-1-carboxamide]
IC50: 6.79 nM

O=C1CN(C(=O)NC(c2cnc(C(F)(F)F)c(Cl)c2)c2ccc(F)c(Cl)c2F)CCN1 (single isomer, unassigned) [Example 36, N-((R or S)-(3-chloro-2,4-difluorophenyl)(5-chloro-6-(trifluoro-methyl)pyridin-3-yl)methyl)-3-oxopiperazine-1-carboxamide]
IC50: 6.97 nM

C[C@@H]1C(=O)NCCN1C(=O)NC(c1cnc(C(F)(F)F)nc1)c1ccc(F)c(Cl)c1F (single isomer, unassigned) [Example 30A, (2R)-N-((R or S)-(3-chloro-2,4-difluoro-phenyl)(2-(trifluoro-methyl)pyrimidin-5-yl)methyl)-2-methyl-3-oxopiperazine-1-carboxamide]
IC50: 506 nM

C[C@@H]1C(=O)NCCN1C(=O)NC(c1cnc(OCC(F)(F)F)c(F)c1)c1ccc(F)c(Cl)c1F (single isomer, unassigned) [Example 10B, (2R)-N-((S or R)-(3-chloro-2,4-difluorophenyl)(5-fluoro-6-(2,2,2-trifluoroethoxy)pyridin-3-yl)methyl)-2-methyl-3-oxopiperazine-1-carboxamide]
IC50: 28 nM

O=C1CN(C(=O)NC(c2ccc(F)c(Cl)c2)c2cccc(C(F)(F)F)n2)[C@H](CF)CN1 (single isomer, unassigned) [Example 47B, (2S)-N-((R or S)-(3-chloro-4-fluoro-phenyl)(6-(trifluoro-methyl)pyridin-2-yl)methyl)-2-(fluoromethyl)-5-oxopiperazine-1-carboxamide]
IC50: 3760 nM

C[C@@H]1C(=O)NCCN1C(=O)NC(c1ccc(F)c(C(F)(F)F)n1)c1ccc(F)c(Cl)c1F (single isomer, unassigned) [Example 60B, (2R)-N-((S or R)-(3-chloro-2,4-difluoro-phenyl)(5-fluoro-6-(trifluoromethyl)pyridin-2-yl)methyl)-2-methyl-3-oxopiperazine-1-carboxamide]
IC50: 8.29 nM

C[C@@H]1C(=O)NCCN1C(=O)NC(c1cnc(C(F)(F)F)nc1)c1ccc(F)c(Cl)c1 (single isomer, unassigned) [Example 69B, (2R)-N-((S or R)-(3-chloro-4-fluorophenyl)(2-(trifluoromethyl)pyrimidin-5-yl)methyl)-2-methyl-3-oxopiperazine-1-carboxamide]
IC50: 23 nM

C[C@@H]1C(=O)NCCN1C(=O)NC(c1ccc(F)c(Cl)c1)c1cccc(C(F)(F)F)n1 (single isomer, unassigned) [Example 44]
IC50: 8.55 nM

C[C@@H]1C(=O)NCCN1C(=O)NC(c1ccc(F)c(Cl)c1)c1cc(C(F)(F)F)nn1C (single isomer, unassigned) [Example 86A, (2R)-N-((R or S)-(3-chloro-4-fluoro-phenyl)(1-methyl-3-(trifluoro-methyl)-1H-pyrazol-5-yl)methyl)-2-methyl-3-oxopiperazine-1-carboxamide]
IC50: 3.59 nM

C[C@@H]1C(=O)NCCN1C(=O)NC(c1ccc(OCC(F)(F)F)nc1)c1cc(F)c(F)c(Cl)c1 (single isomer, unassigned) [Example 7B, (2R)-N-((S or R)-(3-chloro-4,5-difluoro-phenyl)(6-(2,2,2-tri-fluoroethoxy)pyridin-3-yl)methyl)-2-methyl-3-oxo-piperazine-1-carboxamide]
IC50: 19.6 nM

C[C@@H]1C(=O)NCCN1C(=O)NC(c1ccc(OC(F)(F)F)cc1)c1cc(C(F)(F)F)n[nH]1 (single isomer, unassigned) [Example 87B, (2R)-2-methyl-3-oxo-N-((S or R)-(4-(trifluoromethoxy)phenyl)(3-(trifluoromethyl)-1H-pyrazol-5-yl)methyl)piperazine-1-carboxamide]
IC50: 10.8 nM

CCC1C(=O)NCCN1C(=O)NC(c1ccc(C(F)(F)F)nc1)c1ccc(F)c(Cl)c1F (single isomer, unassigned) [Example 40A, N-((R or S)-(3-chloro-2,4-difluorophenyl)(6-(trifluoromethyl)pyridin-3-yl)methyl)-(R or S)-2-ethyl-3-oxopiperazine-1-carboxamide]
IC50: 729 nM

C[C@@H]1C(=O)NCCN1C(=O)NC(c1cnc(OCC(F)(F)F)c(F)c1)c1ccc(F)c(C(F)(F)F)n1 (single isomer, unassigned) [Example 48B]
IC50: 209 nM

O=C1CN(C(=O)NC(c2ccc(OCC(F)(F)F)nc2)c2ccc(F)c(Cl)c2F)CCN1 (single isomer, unassigned) [Example 8B, N-((S or R)-(3-chloro-2,4-difluorophenyl)(6-(2,2,2-trifluoroethoxy)pyridin-3-yl)methyl)-3-oxopiperazine-1-carboxamide]
IC50: 136 nM

C[C@@H]1C(=O)NCCN1C(=O)NC(c1ccc(OC(F)F)nc1)c1ccc(F)c(Cl)c1F (single isomer, unassigned) [Example 31A, (2R)-N-((R or S)-(3-chloro-2,4-difluoro-phenyl)(6-(difluoro-methoxy)pyridin-3-yl)methyl)-2-methyl-3-oxopiperazine-1-carboxamide]
IC50: 3.47 nM

C[C@@H]1C(=O)NCCN1C(=O)NC(c1ccc(OC(F)(F)F)c(Cl)c1)c1cnc(C(F)(F)F)c(Cl)c1 (single isomer, unassigned) [Example 22B, (2R)-N-((S or R)-(3-chloro-4-(trifluoro-methoxy)phenyl)(5-chloro-6-(trifluoro-methyl)pyridin-3-yl)methyl)-2-methyl-3-oxopiperazine-1-carboxamide]
IC50: 2.88 nM

C[C@@H]1C(=O)NCCN1C(=O)NC(c1ccc(OC(F)(F)F)cc1)c1ccc(F)c(C(F)(F)F)n1 (single isomer, unassigned) [Example 55A, (2R)-N-((R or S)-(5-fluoro-6-(trifluoro-methyl)pyridin-2-yl)(4-(trifluoromethoxy)phenyl)methyl)-2-methyl-3-oxopiperazine-1-carboxamide]
IC50: 2.68 nM

C[C@@H]1C(=O)NCCN1C(=O)NC(c1ccc(OCC(F)(F)F)nc1)c1ccc(F)c(C(F)(F)F)n1 (single isomer, unassigned) [Example 50B, (2R)-N-((S or R)-(5-fluoro-6-(trifluoro-methyl)pyridin-2-yl)(6-(2,2,2-trifluoro-ethoxy)pyridin-3-yl)methyl)-2-methyl-3-oxopiperazine-1-carboxamide]
IC50: 8.55 nM

C[C@@H]1C(=O)NCCN1C(=O)NC(c1cnc(C(F)(F)F)c(Cl)c1)c1ccc(F)c(C(F)(F)F)n1 (single isomer, unassigned) [Example 82A]
IC50: 17.4 nM

C[C@@H]1C(=O)NCCN1C(=O)NC(c1ccc(OCC(F)(F)F)nc1)c1ccc(F)c(C(F)(F)F)n1 (single isomer, unassigned) [Example 50A, (2R)-N-((R or S)-(5-fluoro-6-(trifluoro-methyl)pyridin-2-yl)(6-(2,2,2-trifluoro-ethoxy)pyridin-3-yl)methyl)-2-methyl-3-oxopiperazine-1-carboxamide]
IC50: 73.7 nM

C[C@@H]1C(=O)NCCN1C(=O)NC(c1ccc(OC(F)(F)F)c(Cl)c1)c1coc(C(F)(F)F)n1 (single isomer, unassigned) [Example 64B, (2R)-N-((S or R)-(3-chloro-4-(trifluoro-methoxy)phenyl)(2-(trifluoromethyl)oxazol-4-yl)methyl)-2-methyl-3-oxopiperazine-1-carboxamide]
IC50: 3.5 nM

C[C@@H]1C(=O)NCCN1C(=O)NC(c1cnc(OCC(F)(F)F)nc1)c1ccc(F)c(Cl)c1F (single isomer, unassigned) [Example 12B]
IC50: 501 nM

C[C@@H]1C(=O)NCCN1C(=O)NC(c1ccc(OC(F)(F)F)c(F)c1)c1ccc(F)c(C(F)(F)F)n1 (single isomer, unassigned) [Example 56B, (2R)-N-((S or R)-(3-fluoro-4-(trifluoro-methoxy)phenyl)(5-fluoro-6-(trifluoro-methyl)pyridin-2-yl)methyl)-2-methyl-3-oxopiperazine-1-carboxamide]
IC50: 1.31 nM

C[C@@H]1C(=O)NCCN1C(=O)NC(c1ccc(C(F)(F)F)nc1)c1ccc(Cl)c(Cl)c1 (single isomer, unassigned) [Example 18B, (2R)-N-((S or R)-(3,4-dichlorophenyl)(6-(trifluoromethyl)pyridin-3-yl)methyl)-2-methyl-3-oxopiperazine-1-carboxamide]
IC50: 4.69 nM

C[C@@H]1C(=O)NCCN1C(=O)NC(c1ccc(F)c(C(F)(F)F)n1)c1ccc(F)c(Cl)c1F (single isomer, unassigned) [Example 60A, (2R)-N-((R or S)-(3-chloro-2,4-difluoro-phenyl)(5-fluoro-6-(trifluoromethyl)pyridin-2-yl)methyl)-2-methyl-3-oxopiperazine-1-carboxamide]
IC50: 2.19 nM
